Results taken from patent publication US20260374818A1, “CATIONIC PEPTIDES WITH BROAD SPECTRUM ACTIVITY” (priority 2023, published 2026).
Where a SMILES comes first, the peptide text is derived from it. [ ]: non-standard residue; d: D form.

Assays:
[1] = tested on: 3-day-old oral plaque (multispecies) biofilms; test: Oral plaque biofilm model, long-term (1-3 days) exposure, dead cell volume; type: cell-based; conditions: 10 μg/mL, 1 or 3 days (FIG. 10)
E. coli O157:H7 = test: Biofilm inhibition (at least 80%), E. coli; type: cell-based, Escherichia coli; conditions: n = 3, BM2 minimal media, 18-24 hours, crystal violet
MRSA USA300 = test: Biofilm inhibition (at least 80%), MRSA; type: cell-based, methicillin resistant Staphylococcus aureus; conditions: n = 4, 10% TSB + 0.1% glucose, 18-24 hours, crystal violet
red blood cells = test: Hemolysis; type: cell-based, human; conditions: 4 hours
Protocol: Hemolysis: Peptide induced hemolysis was evaluated according to methods described previously [Hilchie, A. L., et al. (2016). Mastoparan is a membranolytic anti-cancer peptide that works synergistically with gemcitabine in a mouse model of mammary carcinoma. Biochimica Et Biophysica Acta, 1858(12), 3195-3204]. Briefly, red blood cells were obtained, with human ethics approval, from the blood of healthy volunteers collected in a sodium heparin tube and then rinsed three times in PBS, centrifuging between washes, to obtain the hematocrit (100% RBC). A 2.5% RBCs suspension was exposed to peptide at varying concentrations and incubated at 37 C in a 5% CO2 humidified atmosphere for 4 hours. Supernatants were collected following centrifugation (1100 rpm) and transferred to a flat bottom microtitre plate. The absorbance (490 nm) of each supernatant was measured on a BioTek Epoch Microplate Spectrophotometer. Percent hemolysis was calculated by comparing the absorbance arising from peptide treated cells to RBCs treated with […] (0% hemolysis) or lysed with 1% Triton X-100 (100% hemolysis).

[2] = tested on: Acinetobacter baumannii Ab5075; test: Biofilm inhibition (at least 80%), A. baumannii; type: cell-based; conditions: n = 4, BM2 minimal media, 18-24 hours, crystal violet
[3] = tested on: peripheral blood mononuclear cells (PBMCs); test: Cytotoxicity (LDH release), PBMCs
[4] = tested on: Enterococcus faecium #2-1; test: Biofilm inhibition (at least 80%), E. faecium; type: cell-based; conditions: E. faecium #2-1; n = 3; TSB + 1% glucose; 48 hours; crystal violet
P. aeruginosa PAO1 = test: Biofilm inhibition (at least 80%), P. aeruginosa; type: cell-based, Pseudomonas aeruginosa; conditions: n = 4, BM2 minimal media, 18-24 hours, crystal violet
[5] = tested on: Enterobacter cloacae 218R1; test: Biofilm inhibition (at least 80%), E. cloacae; type: cell-based; conditions: E. cloacae 218R1; n = 3; BM2 minimal media; 18-24 hours; crystal violet
[6] = tested on: 3-day-old oral plaque biofilms; test: Oral plaque biofilm model, brief (1 minute) exposure, dead cell volume; type: cell-based; conditions: 10 μg/mL, 1 minute (FIG. 11)
[7] = tested on: Klebsiella pneumonia KPLN649; test: Biofilm inhibition (at least 80%), K. pneumonia; type: cell-based; conditions: K. pneumoniae KPLN649; n = 3; BM2 minimal media; 48 hours; crystal violet

CC[C@@H](C)[C@@H](NC(=O)[C@@H](C)NC(=O)[C@@H](CCCNC(=N)N)NC(=O)[C@@H](Cc1c[nH]c2ccccc12)NC(=O)[C@@H](CCC(N)=O)NC(=O)[C@H](N)C(C)C)C(=O)N[C@H](CCCNC(=N)N)C(=O)N[C@@H](C(=O)N[C@@H](C(=O)N[C@@H](C(=O)N[C@@H](C(=O)N[C@H](CCCNC(=N)N)C(N)=O)[C@H](C)CC)C(C)C)[C@H](C)CC)C(C)C [AB107-D, vqwrairvivir-NH2] (H-[dV][dQ][dW][dR][dA][dI][dR][dV][dI][dV][dI][dR]-NH2)
Killing of oral plaque biofilms, long-term exposure [1]: significantly enhanced killing of the oral plaque biofilms
Peptide/Antibiotic Concentration where at least 80% of biofilm growth was inhibited (E. coli O157:H7): 1 µg/mL
Peptide/Antibiotic Concentration where at least 80% of biofilm growth was inhibited (MRSA USA300): 1 µg/mL
Hemolysis (red blood cells): non-toxic at all concentrations evaluated
Broad spectrum antibiofilm activity, more active than DJK5 (ESKAPEE Pathogens): 2-4 fold
Peptide/Antibiotic Concentration where at least 80% of biofilm growth was inhibited [2]: 1 µg/mL
Cytotoxicity (LDH) [3]: non-toxic at all concentrations evaluated
Peptide/Antibiotic Concentration where at least 80% of biofilm growth was inhibited [4]: 1 µg/mL
Peptide/Antibiotic Concentration where at least 80% of biofilm growth was inhibited (P. aeruginosa PAO1): 4 µg/mL
Peptide/Antibiotic Concentration where at least 80% of biofilm growth was inhibited [5]: 1 µg/mL
Killing of oral plaque biofilms, brief exposure [6]: comparable to or better than peptide DJK-5
Peptide/Antibiotic Concentration where at least 80% of biofilm growth was inhibited [7]: 4 µg/mL
